Assay results reported in US20090304674A1, “METHODS FOR TREATING DISEASE BY REGULATING CLL CELL SURVIVAL” (priority 2005, published 2009).
Entries after “also recorded” stand apart in the source; their conditions may differ.

Experiments:
[1] = system: canonical NF-κB1 pathway in CLL B cells; experiment: Immunoblot of canonical NF-κB1 pathway activation (IκBα degradation/phosphorylation, p65 nuclear translocation) in CLL B cells; type: cell-based, human; conditions: rhBAFF 50 ng/ml, 24 hours, UTC pre-incubated 1 hour
Description: Cell lysates were prepared with RIPA buffer (10 mM Tris (pH 7.4), 150 mM NaCl, 1% Triton x 100, 1% deoxycholate, 0.1% SDS, 5 mM EDTA), containing 1 mM PMSF, 0.28 TIU/ml aprotinin, 50 μg/ml leupeptin, 1 mM benzamidine, 0.7 μg/ml pepstatin. Lysates were normalized for total protein (20 μg), subjected to SDS-PAGE (4-15% gradient gels, Bio-Rad, Hercules, Calif.) and immunoblot assay. We incubated the blots with secondary antibodies that were conjugated with horseradish peroxidase. Blots then were prepared for enhanced chemiluminescence (ECL) detection system (Amersham, Little Chalfont, Buckinghamshire, UK) and subsequent autoradiography with Super RX film (Fuji, Tokyo, Japan). The mouse mAb against APRIL (APRIL8) was from Alexis Biochemicals. The mouse mAb against inhibitor of kappa B-α (IκκBα was from Imgenex (San Diego, Calif.). The antibodies against anti-phosho-MAP kinase Erk1/2 and anti-MAP kinase Erk1/2-CT were purchased from Upstate Biotechnology. Antibodies against AKT or phospho-AKT (Ser473) were from Cell Signaling (Beverly, Mass.). Rabbit polyclonal antibodies (Mcl-1, Bcl-2, and Bax) were raised against synthetic peptides.21 Also primary antibodies included β-actin (Sigma Immunochemicals, St Louis, Mo.). Anti-p52 and anti-p65 antibodies were purchased from Upstate Biotechnology.
For fractionation experiments, cells were collected by centrifugation and washed with PBS. The cell pellet containing 5×10^6 cells was suspended in 100 μl of hypotonic buffer (50 mM Tris (pH7.4), 5 mM EDTA, 10 mM NaCl, 0.05% NP-40, 1 mM PMSF, 10 μg/ml Aprotinin, 10 μg/ml Leupeptin, 10 μg/ml Pepstatin, 10 mM β-Glycerophosphate, 1 mM Na-Vanadate, 1 mM NaF). After 10 minutes the lysate was spun and the supernatant was collected as cytoplasmic lysates. The pellet was washed 5 times in hypotonic buffer containing 0.1% NP-40. The remaining pellet was suspended in 100 μl RIPA buffer containing protease and phosphatase inhibitors. After an appropriate amount of 3× sample buffer (200 mM Tris (pH 6.8), 30 mM EDTA, 30% Glycerol, 6% SDS) was added, the sample was boiled for 10 minutes, spun for 10 minutes and the supernatant was recovered as nucleus lysates. Anti-NF kappa B p52 and p65 were purchased from Upstate Biotechnology. Anti-SP-1 was purchased from Santa Cruz Biotechnology (Santa Cruz, Calif.).
Cell lysates were prepared with radioimmunoprecipitation assay (RIPA) buffer (10 mM Tris [pH 7.4], 150 mM NaCl, 1% Triton X-100, 0.1% deoxycholate, 0.1% SDS, 5 mM EDTA), containing 1× complete protease inhibitor cocktail (Roche diagnostics), 1 mM sodium fluoride (NaF), and 1 mM sodium vanadate (Na3VO4). Lysates were normalized for total protein (25 μg) and subjected to SDS-PAGE (4-15% gradient gels, Bio-Rad, Hercules, Calif.) and immunoblot assay. We incubated the blots with secondary antibodies that were conjugated with horseradish peroxidase. Blots then were prepared for enhanced chemiluminescence (ECL) detection system (Amersham, Little Chalfont, United Kingdom) and subsequent autoradiography with Super RX film (Fuji, Tokyo, Japan).
For fractionation experiments, cells were collected by centrifugation and washed with PBS. The cell pellet containing 5×10^6 cells was suspended in 100 μl of hypotonic buffer (50 mM Tris [pH7.4], 5 mM EDTA, 10 mM NaCl, 0.05% Nonidet P40 [NP-40]), containing 1× complete protease inhibitor cocktail, 1 mM NaF, and 1 mM Na3VO4. After 10 minutes, the lysate was spun and the supernatant was collected as cytoplasmic lysates. […]

CLL cells = experiment: Viability of CLL cells cultured with or without rhBAFF and inhibitors (DiOC6/PI flow cytometry); type: cell-based, human; conditions: UTC 10 μM, 48 hours
Description: (§1) Freshly thawed CLL B cells were cultured at the concentration of 1×10^6/mL under various conditions. Determination of CLL cell viability in this study was based on the analysis of mitochondrial transmembrane potential (Δψm) using 3,3′-dehexyloxacarbocyamine iodine (DiOC6) and cell membrane permeability to PI, as described. For viability assays, 100 μl of the cell culture was collected at the indicated time points and transferred to polypropylene tubes containing 100 μl of 80 nmol/l DiOC6 (Molecular Probes) and 2 μg/ml PI in FACS buffer. The cells then were incubated at 37° C. for 15 minutes and analyzed within 30 minutes by flow cytometry using a FACSCalibur (Becton Dickinson). Fluorescence was recorded at 525 nm (FL-1) for DiOC6 and at 600 nm (FL-3) for PI.

[2] = system: normal B cells of healthy donors; experiment: Viability of isolated normal B cells of healthy donors with or without rhBAFF and UTC; type: cell-based, human; conditions: UTC 10 μM, 48 hours
Description: CD19+ B cells of healthy donors were isolated from the buffy coat of blood samples collected from adult volunteers at the San Diego Blood Bank (San Diego, Calif.), as described.
Isolated blood mononuclear cells of patients with CLL were incubated with saturating amounts of Dynabeads coated with anti-CD2 or anti-CD14 mAbs (Dynal A.S. Oslo, Norway). Beadbound cells were removed with a strong magnetic field. Following depletion, less than 0.5% of cells were CD2+ or CD14+, whereas more than 99% were CD19+, as assessed via flow cytometry (data not shown). Peripheral normal CD19+ B cells of healthy donors were purified from the buffy coat of blood samples using CD19 Dynabeads and Detach A Beads (Dynal), following the manufacturer's instructions.
as §1, with “For viability assays, 100 μl of the cell culture was collected at the indicated time points and transferred to polypropylene tubes containing 100 μl of 80 nmol/l DiOC6 (Molecular Probes) and 2 μg/ml PI in FACS buffer.” left out

IKK-2 (IKKβ) = molecular target: T1, IKK-2 (IKKβ) (Homo sapiens, UniProt O14920); conditions: reported by Podolin and colleagues, cited from earlier work
T1 sequence (O14920 1-756): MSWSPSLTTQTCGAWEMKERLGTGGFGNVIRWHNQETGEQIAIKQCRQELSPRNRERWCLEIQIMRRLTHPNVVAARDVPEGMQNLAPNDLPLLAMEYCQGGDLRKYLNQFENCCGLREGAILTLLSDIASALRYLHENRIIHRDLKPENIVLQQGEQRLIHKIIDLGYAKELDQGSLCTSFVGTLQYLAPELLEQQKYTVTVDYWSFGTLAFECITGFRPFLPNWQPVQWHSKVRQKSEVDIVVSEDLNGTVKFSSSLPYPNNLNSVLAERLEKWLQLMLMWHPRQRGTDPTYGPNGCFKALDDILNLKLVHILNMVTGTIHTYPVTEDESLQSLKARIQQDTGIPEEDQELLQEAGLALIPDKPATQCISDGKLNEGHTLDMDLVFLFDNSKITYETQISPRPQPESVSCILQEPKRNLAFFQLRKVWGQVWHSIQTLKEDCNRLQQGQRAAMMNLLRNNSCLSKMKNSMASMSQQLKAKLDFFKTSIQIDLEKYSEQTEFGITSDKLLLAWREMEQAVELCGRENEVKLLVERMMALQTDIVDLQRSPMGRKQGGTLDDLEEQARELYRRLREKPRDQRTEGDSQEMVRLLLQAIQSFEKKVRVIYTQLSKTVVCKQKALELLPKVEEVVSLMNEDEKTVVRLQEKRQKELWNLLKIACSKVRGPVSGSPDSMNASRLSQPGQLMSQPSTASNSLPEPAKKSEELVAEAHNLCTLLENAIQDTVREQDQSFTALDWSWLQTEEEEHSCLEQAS

SMILES: NC(=O)Nc1sc(-c2ccc(F)cc2)cc1C(N)=O [UTC, 5-(4-fluorophenyl)-2-ureido-thiophene-3 carboxylic acid amide]
- inhibition of BAFF-induced translocation of p65 to the nucleus ([1]; anti-BR3 10 μg/ml): inhibited BAFF induced nuclear translocation of p65
- inhibition of rhBAFF-induced phosphorylation of IκBα ([1]; anti-BR3 or BR3-Fc 10 μg/ml): inhibited phosphorylation of IκBα
- viability of CLL cells versus medium alone (CLL cells; 8 patients): significantly lower than that of CLL cells cultured with medium alone
- effect on rhBAFF-enhanced survival/viability of CLL cells (CLL cells; rhBAFF 50 ng/ml, anti-BR3 or BR3-Fc 10 μg/ml): significantly inhibited the capacity of rhBAFF to support CLL cell survival
- survival/viability of isolated normal B cells cultured without rhBAFF ([2]; 8 donors): did not have any effect on survival of isolated normal B cells; also recorded: no significant difference
- effect on pro-survival effect of exogenous rhBAFF on normal B cells ([2]; rhBAFF 50 ng/ml): could partially block the pro-survival effect of exogenous rhBAFF
- selectivity for IKK-2 versus the other ten kinases (IKK-2 (IKKβ); p38α, p38β, p38γ, p38δ, MAPKAPK2, MKK1, MAPK2, COX-1, COX-2, JNK1): more than 550 fold
- selectivity for IKK-2 versus IKK-1 (IKK-2 (IKKβ)): 22 fold
- selectivity for IKK-2 versus JNK3 (IKK-2 (IKKβ)): 200 fold
